Measured values from patent US8999973B2, “Thieno[3,2-d]pyrimidine derivatives having inhibitory activity on protein kinases” (Hanmi Science Co., Ltd, priority 2010, dated 2015).
Positions count from the first letter of the chain named.

Experiments:
[1] = target: T1, Bcr-Abl^T315I (Homo sapiens, UniProt P00519, T315I); assay: Kinase activation assay (IC50), fluorescence polarization tyrosine kinase assay kit; assay type: biochemical; settings: T315I mutation kinase domain (Millipore), Poly (Glu, Tyr) 4:1 substrate, FP readout
T1 construct: purchased Millipore
T1 sequence (P00519 242-493 T315I limits assumed): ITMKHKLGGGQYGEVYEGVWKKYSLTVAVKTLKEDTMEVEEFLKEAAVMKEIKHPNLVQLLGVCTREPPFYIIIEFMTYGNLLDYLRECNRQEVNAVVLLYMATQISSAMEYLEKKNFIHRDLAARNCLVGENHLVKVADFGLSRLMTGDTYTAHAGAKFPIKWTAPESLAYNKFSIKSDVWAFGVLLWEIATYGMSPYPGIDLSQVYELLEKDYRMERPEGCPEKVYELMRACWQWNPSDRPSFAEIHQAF
Method: (§1) Test 1: Kinase Activation Assay (IC50)
(§2) A kinase domain (Millipore) comprising the entire cytoplasmic sequences of Bcr-Abl^wt and Bcr-Abl^T315I mutation kinases and a tyrosine kinase assay kit (Panvera, P2837) were used to measure an inhibitory activation on Bcr-abl. Other kinases such as FGFR, Flt, KDR, PDGFR, Fms, Kit, Raf, Tie2, Src, and Ret were also measured by the same method. In order to prepare a sample, the each compound obtained in Examples 1 to 128 was diluted 10 times with a kinase buffer to a concentration of 10˜0.0001 μM.
(§3) The each kinase was diluted with a kinase buffer to a concentration of 30˜300 ng/assay by using the each Kd value. The kinase buffer consisted of 100 mM HEPES (PH 7.4), 25 mM MgCl2, 10 mM MnCl2, and 250 μM Na3VO4, being kept refrigerated after filtered.
(§4) The test was conducted in 96 well polystyrene round bottom plates. First, 10 μL of the diluted sample was combined with 10 μL of the enzyme solution at room temperature for 10 minutes using a shaker. 10 μL of Poly (Glu, Tyr) 4:1 (Sigma) matrix solution in an appropriate concentration and 10 μL of ATP solution (5˜300 μM) were added to the sample and subjected to a reaction at room temperature for 60 minutes in a shaker. After 60 minutes, an EDTA solution was added thereto to complete the kinase reaction and the reaction mixture was left in a shaker for 5 minutes at room temperature. A tracer, an antibody, and a fluorescence polarization (FP) diluted reaction solution were mixed at a ratio of 1:1:3 to prepare a detecting solution, 50 μL of which was added to the each sample and subjected to a reaction at room temperature for 30 minutes in a shaker. As fluorescing, light was blocked out and the FP value was measured using a FP instrument (excitation wavelength: 485 nm, and emission wavelength: 530 nm).
(§5) And the inhibition on kinase reaction was calculated for the sample in the range of 0˜100% as compared to the control group, and the concentration on x-axis at 50% inhibition was obtained as an inhibitory concentration (IC50) value.
(§6) 50% inhibitory concentration (IC50) Y=bottom+(top−bottom)/(1+10exp(X−log IC50)

[2] = target: T2, Bcr-Abl^wt (Homo sapiens, UniProt P00519); assay: as above; assay type: biochemical; settings: kinase domain (Millipore), Poly (Glu, Tyr) 4:1 substrate, FP readout
T2 construct: purchased Millipore
T2 sequence (P00519 242-493 limits assumed): T1 sequence (P00519 242-493 T315I limits assumed) with I74T
Method: as §1, §2, §3, §4, §5, §6

SMILES	IC50 [1] [nM]	IC50 [2] [nM]
CCN1CCN(c2ccc(NC(=O)c3ccc(C)c(NC(=O)c4csc5c(NC6CC6)ncnc45)c3)cn2)CC1 [Example 30, 4-(cyclopropylamino)-N-(5-(6-(4-ethylpiperazine-1-yl)pyridine-3-ylcarbamoyl)-2-methylphenyl)thieno[3,2-d]pyrimidine-7-carboxamide]	1000 to 10000	1000 to 10000
CCN1CCN(c2cc(NC(=O)c3ccc(C)c(/C=C/c4csc5c(N)ncnc45)c3)cc(C(F)(F)F)c2)CC1 [Example 3, (E)-3-(2-(4-aminothieno[3,2-d]pyrimidine-7-yl)vinyl)-N-(3-(4-ethylpiperazine-1-yl)-5-(trifluoromethyl)phenyl)-4-methylbenzamide]	1000 to 10000	1 to 100
COc1cc(C(=O)Nc2ccc(C)c(NC(=O)c3csc4c(N)ncnc34)c2)nc2ccccc12 [Example 56, 4-amino-N-(5-(4-methoxyquinoline-2-carboxyamido)-2-methylphenyl)thieno[3,2-d]pyrimidine-7-carboxamide]	1000 to 10000	100 to 1000
Cc1ccc(C(=O)Nc2cccc(C(F)(F)F)c2)cc1NC(=O)c1csc2c(NC(C)C)ncnc12 [Example 17, 4-(isopropylamino)-N-(2-methyl-5-(3-(trifluoromethyl)phenylcarbamoyl)phenyl)thieno[3,2-d]pyrimidine-7-carboxamide]	1000 to 10000	1 to 100
COc1cccc(C(=O)Nc2ccc(C)c(NC(=O)c3csc4c(N)ncnc34)c2)c1 [Example 65, 4-amino-N-(5-(3-methoxybenzamido)-2-methylphenyl)thieno[3,2-d]pyrimidine-7-carboxamide]	1000 to 10000	1 to 100
COc1ccc(C(=O)Nc2cc(-n3cnc(C)c3)cc(C(F)(F)F)c2)cc1NC(=O)c1csc2c(NC3CC3)ncnc12 [Example 36, 4-(cyclopropylamino)-N-(2-methoxy-5-(3-(4-methyl-1H-imidazole-1-yl)-5-(trifluoromethyl)phenylcarbamoyl)phenyl)thieno[3,2-d]pyrimidine-7-carboxamide]	1000 to 10000	1 to 100
CCN1CCN(c2cc(C(=O)Nc3ccc(C)c(NC(=O)c4csc5c(NC6CC6)ncnc45)c3)cc(C(F)(F)F)c2)CC1 [Example 110, 4-(cyclopropylamino)-N-(5-(3-(4-ethylpiperazin-1-yl)-5-(trifluoromethyl)benzoamido)-2-methylphenyl)thieno[3,2-d]pyrimidine-7-carboxamide]	100 to 1000	1 to 100
Cc1ccc(NC(=O)c2cccc(C(F)(F)F)c2)cc1/C=C/c1csc2c(N)ncnc12 [Example 6, (E)-N-(3-(2-(4-aminothieno[3,2-d]pyrimidine-7-yl)vinyl)-4-methylphenyl)-3-(trifluoromethyl)benzamide]	1000 to 10000	100 to 1000
Cc1cc(C(=O)Nc2ccc(C)c(NC(=O)c3csc4c(N)ncnc34)c2)n(Cc2ccc(F)cc2)n1 [Example 68, 4-amino-N-(5-(1-(4-fluorobenzyl)-3-methyl-1H-pyrazole-5-carboxyamido)-2-methylphenyl)thieno[3,2-d]pyrimidine-7-carboxamide]	1000 to 10000	1000 to 10000

Now from value to molecule:

IC50 [1] [nM]	IC50 [2] [nM]	SMILES
1 to 100	1 to 100	Cc1ccc(NC(=O)c2ccc(CN3CCCN(C)CC3)c(C(F)(F)F)c2)cc1NC(=O)c1csc2c(NC3CC3)ncnc12 [Example 87, 4-(cyclopropylamino)-N-(2-methyl-5-(4-((4-methyl-1,4-diazepan-1-yl)methyl)-3-(trifluoromethyl)benzoamido)phenyl)thieno[3,2-d]pyrimidine-7-carboxamide]
1 to 100	1 to 100	Cc1ccc(NC(=O)c2cc(N3CCCN(C)CC3)cc(C(F)(F)F)c2)cc1NC(=O)c1csc2c(NC3CC3)ncnc12 [Example 93, 4-(cyclopropylamino)-N-(2-methyl-5-(3-(4-methyl-1,4-diazepan-1-yl)-5-(trifluoromethyl)benzoamido)phenyl)thieno[3,2-d]pyrimidine-7-carboxamide]
1 to 100	1 to 100	Cc1ccc(NC(=O)c2cc(NCCCN(C)C)cc(C(F)(F)F)c2)cc1NC(=O)c1csc2c(NC3CC3)ncnc12 [Example 41, 4-(cyclopropylamino)-N-(5-(3-(3-(dimethylamino)propylamino)-5-(trifluoromethyl)benzamido)-2-methylphenyl)thieno[3,2-d]pyrimidine-7-carboxamide]
100 to 1000	1 to 100	Cc1ccc(NC(=O)c2cc(N3CCOCC3)cc(C(F)(F)F)c2)cc1NC(=O)c1csc2c(NC3CC3)ncnc12 [Example 86]
1 to 100	1 to 100	Cc1cn(-c2cc(C(=O)Nc3ccc(F)c(NC(=O)c4csc5c(NC6CC6)ncnc45)c3)cc(C(F)(F)F)c2)cn1 [Example 121, 4-(cyclopropylamino)-N-(2-fluoro-5-(3-(4-methyl-1H-imidazole-1-yl)-5-(trifluoromethyl)benzoamido)phenyl)thieno[3,2-d]pyrimidine-7-carboxamide]
1 to 100	1 to 100	Cc1ccc(NC(=O)c2cc(-n3ccnc3C)cc(C(F)(F)F)c2)cc1NC(=O)c1csc2c(NC3CC3)ncnc12 [Example 83, 4-(cyclopropylamino)-N-(2-methyl-5-(3-(2-methyl-1H-imidazole-1-yl)-5-(trifluoromethyl)benzoamido)phenyl)thieno[3,2-d]pyrimidine-7-carboxamide]
1 to 100	1 to 100	Cc1ccc(NC(=O)c2cccc(C(F)(F)F)c2)cc1NC(=O)c1csc2c(N)ncnc12 [Example 39, 4-amino-N-(2-methyl-5-(3-(trifluoromethyl)benzamido)phenyl)thieno[3,2-d]pyrimidine-7-carboxamide]
100 to 1000	1 to 100	CN(C)[C@H]1CCN(c2cc(C(=O)Nc3ccc(F)c(NC(=O)c4csc5c(NC6CC6)ncnc45)c3)cc(C(F)(F)F)c2)C1 [Example 107, (S)-4-(cyclopropylamino)-N-(5-(3-(3-(dimethylamino)pyrrolidine-1-yl)-5-(trifluoromethyl)benzoamido)-2-fluorophenyl)thieno[3,2-d]pyrimidine-7-carboxamide]
100 to 1000	100 to 1000	Cc1ccc(NC(=O)c2cc(N3CCC[C@H]3C)cc(C(F)(F)F)c2)cc1NC(=O)c1csc2c(NC3CC3)ncnc12 [Example 113, (R)-4-(cyclopropylamino)-N-(2-methyl-5-(3-(2-methylpyrrolidine-1-yl)-5-(trifluoromethyl)benzoamido)phenyl)thieno[3,2-d]pyrimidine-7-carboxamide]
1 to 100	1 to 100	Cc1ccc(NC(=O)c2cc(-n3cccc3)cc(C(F)(F)F)c2)cc1NC(=O)c1csc2c(N)ncnc12 [Example 45, N-(5-(3-(1H-pyrrol-1-yl)-5-(trifluoromethyl)benzamido)-2-methylphenyl)-4-aminothieno[3,2-d]pyrimidine-7-carboxamide]
1 to 100	1 to 100	Cc1ccc(NC(=O)c2cc(NC3CCN(C)CC3)cc(C(F)(F)F)c2)cc1NC(=O)c1csc2c(NC3CC3)ncnc12 [Example 116, 4-(cyclopropylamino)-N-(2-methyl-5-(3-(1-methylpiperidine-4-ylamino)-5-(trifluoromethyl)benzoamido)phenyl)thieno[3,2-d]pyrimidine-7-carboxamide]
